GI50 and TGI data for 42 compounds are collected here from PubChem BioAssay (NCI).

The structures appear in SMILES notation. Where “and” joins values, the source holds several entries; their conditions need not be identical. Identical values can stand only once.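 96-well plates; 48 h exposure; 5 concentrations. Endpoints by linear interpolation between flanking doses. Not reached: highest tested concentration assigned. Abbreviation: GI50, concentration required for 50% inhibition of growth. TGI denotes the concentration required for complete inhibition of growth.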

In the assay the test system is MDA-MB-468 breast. Kind of assay: NCI-60 cell line screen, 48 h.
As for `Clc1ccc2c(c1)N(C1CCCN(Cc3ccccc3)C1)c1ccccc1S2` (configuration not stated), the GI50 was 2690 nM and the TGI came out at 9.51 µM. Taken in the same sequence, the figures for `COc1ccccc1[As]=[As]c1ccccc1OC` (configuration not stated) were 19.9 nM and 0.0474 µM. In the same order, the values of `COc1ccc(-c2cc(-c3ccc(Cl)cc3)nc(NCCCCNc3ccnc4cc(Cl)ccc34)n2)cc1` are 1720 nM and 4.3 µM. For the compound `Cn1c(=O)c(Oc2ccc(F)cc2F)cc2cnc(N[C@@H]3CCOC3)nc21`, the GI50 was above 25000 nM and the TGI is above 25 µM. For `CCN1C(=O)N(CC)C2C1NN=c1s/c(=C3\C(=O)N(C4CCCC4)c4ccccc43)c(=O)n12` (configuration not stated), the GI50 is 325 nM and the TGI was 2.45 µM. Taken in the same sequence, the figures for `CCN(CC)CCN1c2nc3ccccc3cc2Sc2cc3ccccc3nc21` were 1790 nM and 5.33 µM. For `O=C1Nc2ccccc2/C1=C\c1nc(-c2ccccc2F)n2ccccc12`, the GI50 is 1540 nM and the TGI was 5.51 µM. As to `N#Cc1nc(C#N)c(Sc2ccccc2)c(Sc2ccccc2)c1Sc1ccccc1`, the GI50 was 1910 nM and the TGI came to 5.8 µM. Taken in the same sequence, the figures for `Fc1ccc(-c2nn3ccccc3c2-c2ccncc2)cc1` were 11000 nM and above 25 µM. Consider `COc1ccc2c(O)c(/C=C3\N=Nc4ncccc43)oc2c1C[C@@H]1CCNC[C@H]1F`, for which the GI50 was 308 nM and the TGI worked out at 1.43 µM.

As for `Cc1ccc(Cl)c(NS(=O)(=O)c2ccc(-c3cnc(C4CC4)o3)cc2)c1`, the GI50 was 45.2 nM and the TGI is 7.11 µM. For `Cn1cc(C2=C(c3cn(CCCN)c4ccccc34)C(=O)NC2=O)c2ccccc21`, the GI50 was 3700 nM and the TGI was 7.94 µM. In the same order, the values of `Nc1ncc(-c2ccc3ncnc(N4CCc5ccc(Cl)cc54)c3c2)cc1C(F)(F)F` are 299 nM and 2.68 µM. In the same order, the values of `COc1ccc(S(=O)(=O)Nc2c(/C=C\c3cc(OC)c(OC)c(OC)c3)ccc(OC)c2O)cc1` are 43.9 nM and 17.6 µM. Taken in the same sequence, the figures for `CCCCOc1ccc(/C=N/Nc2cc(C)nc3ccc(Br)cc23)cc1` were 1670 nM and 3.22 µM. On to `COc1ccc(C2C(C#N)=C(N)Oc3c2sc2c(Br)cccc32)cc1` (configuration not stated), for which the GI50 is 1860 nM and the TGI turned out to be 5.55 µM. Taken in the same sequence, the figures for `O=C(/C=C/c1ccccn1)c1ccc(OCc2nnc(-c3ccc(Cl)cc3)o2)cc1` were 1710 nM and 3.56 µM.

For the compound `COc1cc(-c2nc3ccccc3o2)cc(CN2CCCCC2)c1O`, the GI50 was 3240 nM and the TGI was found to be 22.8 µM.

With `c1ccc(-c2n(Cc3ccc4ccccc4c3)c3ccccc3[n+]2Cc2ccc3ccccc3c2)cc1`, the GI50 is 134 nM and the TGI was determined as 0.703 µM.

As for `CCN(CC)c1ccc(-c2cc(-c3cc(OC)c(OC)c(OC)c3)nc(N3CCC(O)CC3)c2C#N)cc1`, the GI50 was 987 nM and the TGI came to 3.21 µM. In the same order, the values of `Clc1cccc(CNc2c3ccccc3nc3ccccc23)c1` are 1280 nM and 3.13 µM. Turning to `Oc1[nH]c2ccccc2c1/C=c1/ccc2c(c1)N=C(c1ccc(C(F)(F)F)cc1)N=2`, the GI50 is 2390 nM and the TGI came out at 14.7 µM. On to `C=CCNC1=C2C[C@@H](C)C[C@H](OC)[C@H](O)[C@@H](C)/C=C(\C)[C@H](OC(N)=O)[C@@H](OC)/C=C\C=C(/C)C(=O)NC(=CC1=O)C2=O`, for which the GI50 is 209 nM and the TGI worked out at 1.83 µM.

Regarding `CC[C@H](C)[C@H](NC(=O)[C@H]1CCCCN1C)C(=O)N(C)[C@H](C[C@@H](OC(C)=O)c1cccc(C(=O)N[C@@H](Cc2ccccc2)C[C@H](C)C(=O)O)n1)C(C)C`, the GI50 is 0.353 nM and 2.5 nM. Consider `c1ccc(Oc2ccc(Nc3ncc(-c4ccccc4)o3)cc2)cc1`, for which the GI50 is above 25000 nM and the TGI is above 25 µM. Taken in the same sequence, the figures for `Cc1nc2sc3c(N)ncnc3c2c(C)c1C` were above 25000 nM and above 25 µM. In the same order, the values of `O=C(Nc1cc(F)c(F)cc1C(=O)O)c1ccc(-n2ccnc2)nn1` are above 100000 nM and above 100 µM. Taken in the same sequence, the figures for `CCOc1ccc(C(C[N+](=O)[O-])Sc2ccccc2N)cc1` (configuration not stated) were 2110 nM and 4.79 µM.

In the case of `N=C(N)c1ccc(-c2ccc(-c3ccc4ccccc4c3)s2)s1`, the GI50 was 2380 nM and the TGI was 5.2 µM. In the same order, the values of `CCCCCCCCCCNCCSS(=O)(=O)O` are 2450 nM and 6.28 µM.

Regarding `CS(=O)(=O)c1cccc(Nc2ncc3cc(-c4ccccc4Cl)ccc3n2)c1`, the GI50 was 2070 nM and the TGI was determined as 19.6 µM. Take `COc1ccc(C(=O)c2cc3c(N)c(C(=O)Nc4cccc(Br)c4C)sc3nc2C)cc1`: the GI50 was 40.4 nM.

As for `O=C(NCCOCCOCCOCCNC(=O)c1cc2c(o1)C(=O)c1ccccc1C2=O)NC12CC3CC(CC(C3)C1)C2`, the GI50 was 1080 nM and the TGI is 4.37 µM. In the same order, the values of `Nc1cc(F)ccc1NC(=O)c1ccc(NC(=O)C/C=C/c2cccnc2)cn1` are 911 nM and 2.5 µM. Taken in the same sequence, the figures for `NCCCNc1nc2ccccc2c2c(=O)c3cccc(Cl)c3sc12` were 837 nM and 2.25 µM. Taken in the same sequence, the figures for `C=C1C(=O)O[C@H]2[C@H]1CC/C(COC(=O)/C=C\C(=O)NCc1ccc(Cn3c(=O)sn(CCI)c3=O)cc1)=C\CC[C@@]1(C)O[C@@H]21` were 2390 nM and 5.85 µM. For the compound `CN(C)Cc1ccc(NC(=O)c2cncc(C#Cc3cnc(N)c4ncccc34)c2)cc1F`, the GI50 is 7720 nM and the TGI is 25.7 µM.

For `COc1cc2ncnc(Nc3ccc(Oc4ccnc(C)c4)c(C)c3)c2cc1NC(=O)CC1CCSS1` (configuration not stated), the GI50 was 784 nM and the TGI worked out at 1.73 µM.

`CCC(=O)N1C/C(=C/c2ccc(Br)cc2)C(=O)/C(=C/c2ccc(Br)cc2)C1`: the GI50 was 371 nM and the TGI worked out at 1.23 µM. In the same order, the values of `C#C[C@@]1(O)[C@@H](CO)O[C@@H](n2cc(C(F)(F)F)c3c(N)ncnc32)[C@@H]1O` are 280 nM and 1.9 µM. In the same order, the values of `CNC(=O)c1c(F)cccc1Nc1nc(Nc2cc3c(cc2OC)CCN3C(=O)CN(C)C)nc2[nH]ccc12` are 2340 nM and 8.85 µM. Taken in the same sequence, the figures for `O=C1Cc2cc(CCn3cncn3)c(Cl)cc2N1` were 2180 nM and 9.54 µM.
